Data published in publication PMC11218446, “Antibacterial efficacy and membrane mechanism of action of the Serratia-derived non-ionic lipopeptide, serrawettin W2-FL10” (Microbiology Spectrum, 2024).
Values after ≈ are worked out from the molar mass of the structure shown. Like-named read-outs stand apart in the source and are kept apart here.

What was measured:
Type in all cases: cell-based, Staphylococcus aureus
Conditions in all cases: for ICF / IC50 ± SE / MIC ± SE: resazurin
[1] = tested on: MRSA Xen 30
Source text: (§1) Based on the broth microdilution assay results for W2-FL10 and melittin, the S. aureus ATCC 25923 (reference), S. aureus RN4220 (laboratory; MSSA), or methicillin-resistant S. aureus Xen 30 (clinical; MRSA) strains were selected for further antibacterial studies. Resazurin (also referred to as Alamar Blue) is a blue, non-fluorescent dye that can be reduced to resorufin (a pink, fluorescent compound) by metabolically active cells. The dye can thus be used as a quantitative indicator of cell viability ([52]). Therefore, a broth microdilution assay coupled with resazurin [prepared to a stock solution of 0.3 mg/mL in PBS; ([53])] was used to determine the influence of cations (Mg^2+ and Ca^2+), commercial LTA of S. aureus and DOPG on the potency of W2-FL10 against S. aureus ATCC 25923, S. aureus RN4220 and MRSA Xen 30 as described by Wu et al. ([54]).
(§2) For investigating the influence of cations on the antibacterial potency of W2-FL10, a clear 96-well plate was prepared with W2-FL10 and air dried as described in the “Antibacterial activity: broth microdilution assay” section. The S. aureus strains were inoculated into MHB or CA-MHB, grown to mid-log phase (OD600 of 0.5–0.6), and diluted to OD600 of 0.4. A 1:20 dilution of the test strain (final concentration of ∼10^5 CFU/mL) was prepared and 100 µL was dispensed into each well (final concentration of W2-FL10 at 1.56 to 25 µg/mL). Sterile broth (i.e., MHB or CA-MHB) and the OD-adjusted inoculum were included in the assay as a positive control, while sterile broth (i.e., MHB or CA-MHB) was included as a sterility control. The plate was incubated for 24 h at 37°C.
(§3) Similarly, the possible interaction and binding of LTA of S. aureus and DOPG (both at 1 mg/mL in 10% EtOH) with the lipopeptide W2-FL10 was investigated ([54]). Briefly, a clear 96-well plate was prepared with W2-FL10 and air dried as described in the “Antibacterial activity: broth microdilution assay” section. Thereafter, 10 µL of LTA from S. aureus or DOPG was dispensed into the respective wells. The S. aureus strains were grown to mid-log phase in MHB (OD600 of 0.5–0.6) and diluted to OD600 of 0.4. A 1:20 dilution of test strain (final concentration of ∼10^5 CFU/mL) was prepared, 100 µL was dispensed into each well (final concentration of W2-FL10 at 3.13 to 100 µg/mL), and the plate was incubated for 24 h at 37°C. Sterile broth, the OD-adjusted inoculum, and the respective LTA or DOPG were included in the assay as a positive control, while sterile broth and LTA or DOPG were included as a sterility control.
(§4) After incubation of both plates, 10 µL of resazurin (0.3 mg/mL) was added to each well and the plate was incubated at 37°C for 1 h. Fluorometric readings of the experimental plates were conducted using a Tecan Spark 10M Multimode Microplate Reader at 560 nm excitation wavelength and 590 nm emission wavelength. For all resazurin assays, the percentage inhibition was calculated as described by van Rensburg et al. ([53]). All experiments were performed in triplicate, with independent biological duplicates. […] Dose-response curves (nonlinear regression using equation 1) were processed as described by Rautenbach et al. ([17]) (also see description above), and IC50 values were deduced from the best-fit sigmoidal curves (R^2 ≥ 0.98). Statistical analyses were done by comparing W2-FL10 IC50, in the presence of Ca^2+ and Mg^2+, in the presence of DOPG, and in the presence of LTA toward the control condition each of the three S. aureus strains using one-way analysis of variance (ANOVA) with Bonferroni’s post hoc test.

[2] = tested on: S. aureus ATCC 25923
Source text: as §1, §2, §3, §4

[3] = tested on: S. aureus RN4220
Source text: as §1, §2, §3, §4

[4] = LTA 100 µg/mL vs control, P < 0.001
[5] = LTA of S. aureus 100 µg/mL, n = 3
[6] = Control (MHB), 24 h 37°C, n = 4

CCCCCCCC1CC(=O)N[C@H](CC(C)C)C(=O)N[C@@H](CO)C(=O)N[C@@H]([C@@H](C)O)C(=O)N[C@H](Cc2ccccc2)C(=O)N[C@@H](CC(C)C)C(=O)O1 (stereo partly drawn) [W2-FL10, serrawettin W2-FL10]
increase in the IC50 in the presence of LTA [1, 4]: twofold
ICF ([1]; Ca2+ and Mg2+ (CA-MHB)): 1.7
IC50 ± SE ([1]; Ca2+ and Mg2+ (CA-MHB), n = 4): 12.2±0.2 (5) 9.5±1.5 (4) 40.6±2.0 (4) 24.6±0.1 (4) µg/mL
MIC ± SE ([1]; Ca2+ and Mg2+ (CA-MHB), n = 4): 12.5 ± 0.0 µg/mL (≈ 17.1 µM)
ICF ([1]; Control (MHB)): 3.4
MIC ± SE ([1]; Control (MHB), 24 h 37°C, n = 5): 22.5 ± 2.5 µg/mL (≈ 30.7 µM)
IC50 ± SE ([1]; Control (MHB), n = 5): 12.2 µg/mL (≈ 16.7 µM)
ICF ([1]; DOPG 100 µg/mL): 2.4
IC50 ± SE ([1]; DOPG 100 µg/mL, n = 4): 40.6 µg/mL (≈ 55.5 µM)
MIC ± SE ([1]; DOPG 100 µg/mL, n = 4): 62.5 ± 12.5 µg/mL (≈ 85.4 µM)
ICF ([1]; LTA 100 µg/mL): 4.1
IC50 ± SE ([1]; LTA 100 µg/mL, n = 4): 24.6 µg/mL (≈ 33.6 µM)
MIC ± SE [1, 5]: 50.0 ± 17.7 µg/mL (≈ 68.3 µM)
increase in the IC50 in the presence of DOPG ([2]; DOPG 100 µg/mL vs control, P < 0.001): twofold
ICF ([2]; Ca2+ and Mg2+ (CA-MHB)): 2.2
IC50 ± SE ([2]; Ca2+ and Mg2+ (CA-MHB), n = 4): 8.4 µg/mL (≈ 11.5 µM)
MIC ± SE ([2]; Ca2+ and Mg2+ (CA-MHB), n = 4): 12.5 ± 0.0 µg/mL (≈ 17.1 µM)
ICF ([2]; Control (MHB)): 4.3
MIC ± SE [2, 6]: 21.9 ± 3.1 µg/mL (≈ 29.9 µM)
IC50 ± SE ([2]; Control (MHB), n = 4): 10.6 µg/mL (≈ 14.5 µM)
ICF ([2]; DOPG 100 µg/mL): 6.3
IC50 ± SE ([2]; DOPG 100 µg/mL, n = 4): 22.5 µg/mL (≈ 30.7 µM)
MIC ± SE ([2]; DOPG 100 µg/mL, n = 4): 56.3 ± 15.7 µg/mL (≈ 76.9 µM)
ICF ([2]; LTA 100 µg/mL): 6.3
IC50 ± SE ([2]; LTA 100 µg/mL, n = 4): 16.6 µg/mL (≈ 22.7 µM)
MIC ± SE [2, 5]: 41.7 ± 8.3 µg/mL (≈ 57 µM)
increase in the IC50 in the presence of LTA [3, 4]: twofold
ICF ([3]; Ca2+ and Mg2+ (CA-MHB)): 6.3
IC50 ± SE ([3]; Ca2+ and Mg2+ (CA-MHB), n = 3): 10 µg/mL (≈ 13.7 µM)
MIC ± SE ([3]; Ca2+ and Mg2+ (CA-MHB), n = 3): 25.0 ± 0.0 µg/mL (≈ 34.2 µM)
ICF ([3]; Control (MHB)): 3.6
MIC ± SE [3, 6]: 25.0 ± 0.0 µg/mL (≈ 34.2 µM)
IC50 ± SE ([3]; Control (MHB), n = 4): 13.2 µg/mL (≈ 18 µM)
ICF ([3]; DOPG 100 µg/mL): 2.2
IC50 ± SE ([3]; DOPG 100 µg/mL, n = 3): 44.6 µg/mL (≈ 60.9 µM)
MIC ± SE ([3]; DOPG 100 µg/mL, n = 3): 66.7 ± 16.7 µg/mL (≈ 91.1 µM)
ICF ([3]; LTA 100 µg/mL): 3.5
IC50 ± SE ([3]; LTA 100 µg/mL, n = 3): 26.8 µg/mL (≈ 36.6 µM)
MIC ± SE [3, 5]: 50.0 ± 0.0 µg/mL (≈ 68.3 µM)
